Results as given in ChEMBL document CHEMBL1144128, “A new bisabolene epoxide from Tussilago farfara, and inhibition of nitric oxide synthesis in LPS-activated macrophages” (J Nat Prod, 1999).
One block for each compound: values may come before it.

Tests used:
RAW264.7 [1] = assay: Inhibition of LPS-induced nitric oxide synthesis in mouse RAW264.7 macrophages after 18 hrs of LPS challenge measured after 18 hrs by ELISA relative to LPS-treated control; type: functional
RAW264.7 [2] = assay: Inhibition of LPS-induced nitric oxide synthesis in mouse RAW264.7 macrophages at 30 uM after 18 hrs of LPS challenge measured after 18 hrs by ELISA relative to LPS-treated control; type: functional; conditions: RAW264.7, 18 h
RAW264.7 [3] = assay: Inhibition of LPS-induced nitric oxide synthesis in mouse RAW264.7 macrophages at 30 uM pretreated 18 hrs before arginine challenge assessed after 18 hrs by ELISA relative to LPS-treated control; type: functional
RAW264.7 [4] = assay: Inhibition of LPS-induced nitric oxide synthesis in mouse RAW264.7 macrophages at 30 uM after 18 hrs by ELISA relative to LPS-treated control; type: functional; conditions: RAW264.7, 18 h
RAW264.7 [5] = assay: Inhibition of LPS-induced nitric oxide synthesis in mouse RAW264.7 macrophages after 18 hrs by ELISA; type: functional, cell-based
RAW264.7 [6] = assay: Inhibition of LPS-induced nitric oxide synthesis in mouse RAW264.7 macrophages at 0.1 uM pretreated 18 hrs before arginine challenge assessed after 18 hrs by ELISA relative to LPS-treated control; type: functional
RAW264.7 [7] = assay: Inhibition of LPS-induced nitric oxide synthesis in mouse RAW264.7 macrophages at 0.1 uM after 18 hrs by ELISA relative to LPS-treated control; type: functional; conditions: RAW264.7, 18 h
RAW264.7 [8] = assay: Inhibition of LPS-induced nitric oxide synthesis in mouse RAW264.7 macrophages at 0.1 uM after 18 hrs of LPS challenge measured after 18 hrs by ELISA relative to LPS-treated control; type: functional; conditions: RAW264.7, 18 h

SMILES: N=C(N)NN [PIMAGEDINE]
- inhibition (INH) (RAW264.7 [1]): 78.8%

- IC50 (RAW264.7 [5]; RAW264.7, 18 h): 8.9 µM
SMILES: C=C(C(CC=C(C)C)OC(=O)/C(C)=C\C)C1[C@H](OC(C)=O)C(=O)[C@@]2(C)O[C@H]2[C@@H]1OC(C)=O (some centres undefined)
- inhibition at 30 µM (RAW264.7 [2]): 11.1%
- inhibition at 30 µM (RAW264.7 [3]): 68.9%
- inhibition at 30 µM (RAW264.7 [4]): 71.1%
- Activity (RAW264.7 [5]): Dose-dependent effect

SMILES: CNC(=N)NCCC[C@H](N)C(=O)O [TILARGININE]
- inhibition at 0.1 µM (RAW264.7 [6]): 25.8%
- inhibition at 0.1 µM (RAW264.7 [7]): 60.5%
- inhibition at 0.1 µM (RAW264.7 [8]): 53.3%
